pIC50: −log10 of the molar value. Entries after “also recorded” stand apart in the source; their conditions may differ. Like-named read-outs stand apart in the source and are kept apart here.
Legend:
[1] = tested on: xanthurenic acid receptor; assay: Screening: displacement of [3H]-XA binding to synaptic membranes at a fixed concentration; settings: for % inhibition of XA binding at 50 μM*: compound at 50 μM
Procedure: If this concentration produces the same or greater displacement than the same concentration of non-radiolabelled XA, then an IC50 is determined. […] The incubation time is 25 min. […] The filters are placed in scintillation vials to which 5 ml of Rotiszint® (Roth) are added and the vials are counted in a Beckman LS6000sc liquid scintillation counter. Specific binding is given as the difference between total binding and nonspecific binding. The percentage inhibition of binding that the synthetic compounds produce is calculated for each compound in relation to its positive control.

[2] = target: xanthurenic acid receptor; assay: Competition protocol, IC50 determination against [3H]-XA binding on synaptic membranes
Procedure: Binding is carried out in 50 mM Pipes buffer pH 7.4 at 0° C. […] If the compound reversibly binds to the binding site of [^3H]-XA, the two ligands will compete with each other and a binding displacement curve for [^3H]-XA can be plotted against the concentration of the competitor molecule. The incubation time is 25 minutes, followed by filtration.

[3] = tested on: xanthurenic acid receptor; assay: In vitro electrophysiology experiments, block of xanthurenic acid effects; assay type: cell-based
[4] = tested on: xanthurenic acid receptor; assay: In vivo studies of stereotypic behaviors, block of xanthurenic acid effects
[5] = 200 nM [3H]-XA, synaptic membranes, xanthurenic acid set arbitrarily to 100%

SMILES | % inhibition of XA binding at 10 μM* ([1]; compound at 10 μM, 200 nM [3H]-XA, synaptic membranes, xanthurenic acid set arbitrarily to 100%) [%] | % inhibition of XA binding at 50 μM* [1, 5] [%] | pIC50 ([2]; competition between [3H]-XA and non-radiolabelled XA, read-out: IC50, first site of two site binding model) | IC50 ([2]; two site binding model, second (higher) IC50, 200 nM [3H]-XA, synaptic membranes, read-out: IC50 (μM), second of two values) [µM] | effect on xanthurenic acid binding, in words [1] | pIC50 ([2]; single value, inhibition of binding of 200 nM [3H]-XA, synaptic membranes, read-out: IC50) | effect on xanthurenic acid effects in vitro (electrophysiology) [3] | effect on xanthurenic acid effects in vivo (stereotypic behaviors) [4]
O=C(O)c1cc(O)c2cccc(O)c2n1 [Xanthurenic acid, reference compound] | 100 | 100 | 6.52 | 57 |  |  |  | 
Nc1cccc2c(O)cc(C(=O)O)nc12 [Compound 3u, 4-hydroxy-8-amino-quinoline-2-carboxylic acid] |  | 106 |  |  | quite potent inhibitor of xanthurenic acid binding; also recorded: potent inhibitors of XA binding to its site | 4.84 | blocks the effects of xanthurenic acid without displaying an intrinsic effect | blocks the effects of xanthurenic acid without displaying an intrinsic effect

Source: US20060183909A1, “Compositions derived from quinoline and quinoxaline, preparation and use thereof” (priority 2001, published 2006)
